In patent US8859535B2, “Hydroxy substituted isoquinolinone derivatives” (Novartis AG, priority 2011, dated 2014) one finds IC50 data, which are given here for 21 compounds.

The target of test [1] is T1, human MDM2 protein (amino acids 2-188) (Homo sapiens, UniProt Q00987).
T1 construct: human MDM2 protein (amino acids 2-188); made in house
Nature of the test: p53-MDM2 TR-FRET assay (p53-MDM2 Assay 1). The format is binding. As to conditions: 1.25 nM MDM2-biotinylated, 10 nM Cy5-p53 peptide; read-out: IC50 (μM) of p53-Hdm2 inhibition (TR-FRET) Assay 1. In a few lines:
(§1)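 C-terminally biotinylated MDM2 (aa 2-188, 1.25 nM) or MDM4 (aa 2-185, 2.5 nM) with Eu-streptavidin (0.625 nM), 15 min preincubation, then 10 nM Cy5-p53 peptide (aa18-26), 15 min room temperature; TR-FRET 665/620 nm ratio, IC50 by curve fit. Modified MDM2 Assay 2 uses 0.1 nM MDM2 and 0.1 nM Eu-streptavidin.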

Test [2] addresses T2, human MDM4 protein (amino acids 2-185) (Homo sapiens, UniProt O15151).
T2 construct: human MDM4 protein (amino acids 2-185); made in house
T2 sequence (O15151 2-185): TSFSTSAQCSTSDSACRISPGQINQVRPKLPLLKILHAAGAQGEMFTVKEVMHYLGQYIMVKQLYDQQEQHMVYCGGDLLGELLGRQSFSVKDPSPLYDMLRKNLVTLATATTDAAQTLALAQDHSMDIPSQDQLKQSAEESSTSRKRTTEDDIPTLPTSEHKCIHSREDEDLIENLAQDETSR
The test is described as follows: p53-MDM4 TR-FRET assay (p53-MDM4 Assay 1). The format is binding. To be noted: 2.5 nM MDM4-biotinylated, 10 nM Cy5-p53 peptide; read-out: IC50 (μM) of p53-Hdm4 inhibition (TR-FRET) Assay 1. In a few lines: as §1

T1 sequence (Q00987 2-188): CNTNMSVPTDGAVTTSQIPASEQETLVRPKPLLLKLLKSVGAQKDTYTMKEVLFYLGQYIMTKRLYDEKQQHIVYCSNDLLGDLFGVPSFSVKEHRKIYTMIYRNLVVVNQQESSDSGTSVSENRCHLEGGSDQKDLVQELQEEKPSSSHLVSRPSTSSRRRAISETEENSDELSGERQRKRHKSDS

As to `COc1cc2c(cc1OC(C)C)[C@H](c1ccc(Cl)cc1)N(c1ccc(C(C)(O)C3CCN(C(N)=O)CC3)cc1)C(=O)C2` (stereo partly drawn) [Example 75, 4-(1-{4-[(S)-1-(4-Chloro-phenyl)-7-isopropoxy-6-methoxy-3-oxo-3,4-dihydro-1H-isoquinolin-2-yl]-phenyl}-1-hydroxy-ethyl)-piperidine-1-carboxylic acid amide], the results for the IC50 in test [1] and in test [2] were 0.0043 µM and 4.95 µM, respectively.

For the compound `COc1cc2c(cc1OC(C)C)[C@H](c1ccc(Cl)cc1)N(c1ccc(C(C)(O)C3CCN(CC(F)(F)F)CC3)cc1)C(=O)C2` (stereo partly drawn) [Example 77, (S)-1-(4-Chloro-phenyl)-2-(4-{1-hydroxy-1-[1-(2,2,2-trifluoro-ethyl)-piperidin-4-yl]-ethyl}-phenyl)-7-isopropoxy-6-methoxy-1,4-dihydro-2H-isoquinolin-3-one], the values for the IC50 in test [1] and in test [2] were 0.011 µM and 13.5 µM, respectively.

Regarding `COc1cc2c(cc1OC(C)C)[C@H](c1ccc(Cl)cc1)N(c1ccc(C(C)(O)C3CCN(C(C)C)CC3)cc1)C(=O)C2` (stereo partly drawn) [Example 78, (S)-1-(4-Chloro-phenyl)-2-{4-[1-hydroxy-1-(1-isopropyl-piperidin-4-yl)-ethyl]-phenyl}-7-isopropoxy-6-methoxy-1,4-dihydro-2H-isoquinolin-3-one], the IC50 in test [1] was 0.0043 µM; in test [2] it was 3.18 µM.

Take `CNC(=O)N1CCC(C(C)(O)c2ccc(N3C(=O)Cc4cc(OC)c(OC(C)C)cc4[C@@H]3c3ccc(Cl)cc3)cc2)CC1` (stereo partly drawn) [Example 79, 4-(1-{4-[(S)-1-(4-Chloro-phenyl)-7-isopropoxy-6-methoxy-3-oxo-3,4-dihydro-1H-isoquinolin-2-yl]-phenyl}-1-hydroxy-ethyl)-piperidine-1-carboxylic acid methylamide]: the figures for the IC50 in test [1] and in test [2] were 0.0052 µM and 5.63 µM, respectively.

In the case of `COc1cc2c(cc1OC(C)C)[C@H](c1ccc(Cl)cc1)N(c1ccc(C(C)(O)C3CCN(C(=O)C4CC4)CC3)cc1)C(=O)C2` (stereo partly drawn) [Example 80], the IC50 was found to be 0.0052 µM in test [1] and 5.11 µM in test [2].

As to `COc1cc2c(cc1OC(C)C)[C@H](c1ccc(Cl)cc1)N(c1ccc(C(C)(O)C3CCN(S(C)(=O)=O)CC3)cc1)C(=O)C2` (stereo partly drawn) [Example 81, (S)-1-(4-Chloro-phenyl)-2-{4-[1-hydroxy-1-(1-methanesulfonyl-piperidin-4-yl)-ethyl]-phenyl}-7-isopropoxy-6-methoxy-1,4-dihydro-2H-isoquinolin-3-one], the figures for the IC50 in test [1] and in test [2] were 0.0057 µM and 5.11 µM, respectively.

In the case of `COc1cc2c(cc1OC(C)C)[C@H](c1ccc(Cl)cc1)N(c1ccc(C(C)(O)C3CCN(C(=O)N(C)C)CC3)cc1)C(=O)C2` (stereo partly drawn) [Example 82, 4-(1-{4-[(S)-1-(4-Chloro-phenyl)-7-isopropoxy-6-methoxy-3-oxo-3,4-dihydro-1H-isoquinolin-2-yl]-phenyl}-1-hydroxy-ethyl)-piperidine-1-carboxylic acid dimethylamide], the values for the IC50 in test [1] and in test [2] were 0.0032 µM and 2.9 µM, respectively.

Regarding `COc1cc2c(cc1OC(C)C)[C@H](c1ccc(Cl)cc1)N(c1ccc(C(C)(O)C3CCN(C(=O)OC(C)C)CC3)cc1)C(=O)C2` (stereo partly drawn) [Example 83, 4-(1-{4-[(S)-1-(4-Chloro-phenyl)-7-isopropoxy-6-methoxy-3-oxo-3,4-dihydro-1H-isoquinolin-2-yl]-phenyl}-1-hydroxy-ethyl)-piperidine-1-carboxylic acid isopropyl ester], the IC50 in test [1] was 0.0069 µM; in test [2], 7.54 µM.

For `COc1cc2c(cc1OC(C)C)[C@H](c1ccc(Cl)cc1)N(c1ccc(C(C)(O)C3CCN(C(=O)NC(C)C)CC3)cc1)C(=O)C2` (stereo partly drawn) [Example 84, 4-(1-{4-[(S)-1-(4-Chloro-phenyl)-7-isopropoxy-6-methoxy-3-oxo-3,4-dihydro-1H-isoquinolin-2-yl]-phenyl}-1-hydroxy-ethyl)-piperidine-1-carboxylic acid isopropylamide], the IC50 in test [1] stood at 0.0056 µM; in test [2], 5.91 µM.

With `CCN1CCC(C(C)(O)c2ccc(N3C(=O)Cc4cc(OC)c(OC(C)C)cc4[C@@H]3c3ccc(Cl)cc3)cc2)CC1` (stereo partly drawn) [Example 85, (S)-1-(4-Chloro-phenyl)-2-{4-[1-(1-ethyl-piperidin-4-yl)-1-hydroxy-ethyl]-phenyl}-7-isopropoxy-6-methoxy-1,4-dihydro-2H-isoquinolin-3-one], the IC50 was found to be 0.0048 µM in test [1] and 4.94 µM in test [2].

For the compound `COc1cc2c(cc1OC(C)C)[C@H](c1ccc(Cl)cc1)N(c1ccc(C(C)(O)C3CCN(CCC(F)(F)F)CC3)cc1)C(=O)C2` (stereo partly drawn) [Example 86], the IC50 in test [1] turned out to be 0.0058 µM; in test [2], 6.45 µM.

Consider `COc1cc2c(cc1OC(C)C)[C@H](c1ccc(Cl)cc1)N(c1ccc(C(C)(O)C3CCN(C(=O)C(F)F)CC3)cc1)C(=O)C2` (stereo partly drawn) [Example 87, (S)-1-(4-Chloro-phenyl)-2-(4-{1-[1-(2,2-difluoro-acetyl)-piperidin-4-yl]-1-hydroxy-ethyl}-phenyl)-7-isopropoxy-6-methoxy-1,4-dihydro-2H-isoquinolin-3-one], for which the concentration for half-maximal inhibition (IC50) was 0.0287 µM in test [1] and 23.9 µM in test [2].

On to `COc1cc2c(cc1OC(C)C)[C@H](c1ccc(Cl)cc1)N(c1ccc(C(C)(O)C3CCN(C(=O)CC#N)CC3)cc1)C(=O)C2` (stereo partly drawn) [Example 88, 3-[4-(1-{4-[(S)-1-(4-Chloro-phenyl)-7-isopropoxy-6-methoxy-3-oxo-3,4-dihydro-1H-isoquinolin-2-yl]-phenyl}-1-hydroxy-ethyl)-piperidin-1-yl]-3-oxo-propionitrile], for which the IC50 in test [1] is 0.0114 µM; in test [2] it was 10.8 µM.

As for `COc1cc2c(cc1OC(C)C)[C@H](c1ccc(Cl)cc1)N(c1ccc(C(C)(O)C3CCN(C=O)CC3)cc1)C(=O)C2` (stereo partly drawn) [Example 89, 4-(1-{4-[(S)-1-(4-Chloro-phenyl)-7-isopropoxy-6-methoxy-3-oxo-3,4-dihydro-1H-isoquinolin-2-yl]-phenyl}-1-hydroxy-ethyl)-piperidine-1-carbaldehyde], the IC50 in test [1] amounted to 0.0028 µM; in test [2] it was 2.39 µM.

`COc1cc2c(cc1OC(C)C)[C@H](c1ccc(Cl)cc1)N(c1ccc(C(C)(O)C3CN(C4CCOCC4)C3)cc1)C(=O)C2` (stereo partly drawn) [Example 98, (S)-1-(4-Chloro-phenyl)-2-(4-{1-hydroxy-1-[1-(tetrahydro-pyran-4-yl)-azetidin-3-yl]-ethyl}-phenyl)-7-isopropoxy-6-methoxy-1,4-dihydro-2H-isoquinolin-3-one]: the IC50 was determined as 0.0342 µM in test [1] and 34.7 µM in test [2].

As for `COc1cc2c(cc1OC(C)C)[C@H](c1ccc(Cl)cc1)N(c1ccc(C(C)(O)C3CN(C4CCCCC4)C3)cc1)C(=O)C2` (stereo partly drawn) [Example 99, (S)-1-(4-Chloro-phenyl)-2-{4-[1-(1-cyclohexyl-azetidin-3-yl)-1-hydroxy-ethyl]-phenyl}-7-isopropoxy-6-methoxy-1,4-dihydro-2H-isoquinolin-3-one], the IC50 in test [1] was 0.0279 µM; in test [2], 24.6 µM.

As to `CCN1CCC(N2CC(C(C)(O)c3ccc(N4C(=O)Cc5cc(OC)c(OC(C)C)cc5[C@@H]4c4ccc(Cl)cc4)cc3)C2)CC1` (stereo partly drawn) [Example 100, (S)-1-(4-Chloro-phenyl)-2-(4-{1-[1-(1-ethyl-piperidin-4-yl)-azetidin-3-yl]-1-hydroxy-ethyl}-phenyl)-7-isopropoxy-6-methoxy-1,4-dihydro-2H-isoquinolin-3-one], the IC50 in test [1] amounted to 0.0082 µM; in test [2], 9.66 µM.

`COc1cc2c(cc1OC(C)C)[C@H](c1ccc(Cl)cc1)N(c1ccc(C(C)(O)C3CN(C4CCN(C)CC4)C3)cc1)C(=O)C2` (stereo partly drawn) [Example 101, (S)-1-(4-Chloro-phenyl)-2-(4-{1-hydroxy-1-[1-(1-methyl-piperidin-4-yl)-azetidin-3-yl]-ethyl}-phenyl)-7-isopropoxy-6-methoxy-1,4-dihydro-2H-isoquinolin-3-one]: the results for the IC50 in test [1] and in test [2] were 0.0085 µM and 9.21 µM, respectively.

Regarding `COc1cc2c(cc1OC(C)C)[C@H](c1ccc(Cl)cc1)N(c1ccc(C(C)(O)C3CN(C(=O)CO)C3)cc1)C(=O)C2` (stereo partly drawn) [Example 102, (S)-1-(4-Chloro-phenyl)-2-(4-{1-hydroxy-1-[1-(2-hydroxy-acetyl)-azetidin-3-yl]-ethyl}-phenyl)-7-isopropoxy-6-methoxy-1,4-dihydro-2H-isoquinolin-3-one], the IC50 in test [1] stood at 0.0078 µM; in test [2], 7.38 µM.

As for `COc1cc2c(cc1OC(C)C)[C@H](c1ccc(Cl)cc1)N(c1ccc(C(C)(O)C3CC4CCC(C3)N4C(C)=O)cc1)C(=O)C2` (stereo partly drawn) [Example 104, (S)-2-{4-[1-(8-Acetyl-8-aza-bicyclo[3.2.1]oct-3-yl)-1-hydroxy-ethyl]-phenyl}-1-(4-chloro-phenyl)-7-isopropoxy-6-methoxy-1,4-dihydro-2H-isoquinolin-3-one], the IC50 was 0.0132 µM in test [1] and 14.2 µM in test [2].

For the compound `COc1cc2c(cc1OC(C)C)[C@H](c1ccc(Cl)cc1)N(c1ccc(C(C)(O)C3CC4CCC(C3)N4C(C)C)cc1)C(=O)C2` (stereo partly drawn) [Example 110, (S)-1-(4-Chloro-phenyl)-2-{4-[1-hydroxy-1-(8-isopropyl-8-aza-bicyclo[3.2.1]oct-3-yl)-ethyl]-phenyl}-7-isopropoxy-6-methoxy-1,4-dihydro-2H-isoquinolin-3-one], the values for the IC50 in test [1] and in test [2] were 0.0049 µM and 4.23 µM, respectively.
